From publication PMC5218480 (PLoS ONE, 2017) come the findings set out here.

The subject of this test is MV-4-11 cells. The test is described as follows: Gene expression microarray analysis (Affymetrix PrimeView) and GSEA. In kind it is cell-based, human. Also noted: RFU PODN (11730768_x_at) / Fold change /veh PODN (11730768_x_at) / RFU LINC00158 (11744669_a_at) / Fold change /veh LINC00158 (11744669_a_at) / RFU DUSP10 (11751237_a_at) / Fold change /veh DUSP10 (11751237_a_at) / RFU ID3 (11757404_x_at) / Fold change /veh ID3 (11757404_x_at) / RFU PLEKHG5 (11737974_s_at) / Fold change /veh PLEKHG5 (11737974_s_at) / RFU LRRC4B (11730491_at) / Fold change /veh LRRC4B (11730491_at) / RFU GIMAP4 (11747438_a_at) / Fold change /veh GIMAP4 (11747438_a_at) / RFU KRT8 (11758183_x_at) / Fold change /veh KRT8 (11758183_x_at) / RFU CNN1 (11734310_a_at) / Fold change /veh CNN1 (11734310_a_at) / RFU VPS37D (11726825_at) / Fold change /veh VPS37D (11726825_at) / RFU C10orf10 (11716522_x_at) / Fold change /veh C10orf10 (11716522_x_at) / RFU KIR2DL2 /// KIR2DL4 /// KIR2DL5A /// KIR2DL5B /// KIR2DS1 /// KIR2DS2 /// KIR2DS3 /// KIR2DS4 /// KIR3DL3 /// KIR3DL3 /// KIR3DS1 (11738374_at) / Fold change /veh KIR2DL2 /// KIR2DL4 /// KIR2DL5A /// KIR2DL5B /// KIR2DS1 /// KIR2DS2 /// KIR2DS3 /// KIR2DS4 /// KIR3DL3 /// KIR3DL3 /// KIR3DS1 (11738374_at) / RFU C1QL1 (11718748_at) / Fold change /veh C1QL1 (11718748_at) / RFU TMPRSS4 (11747572_a_at) / Fold change /veh TMPRSS4 (11747572_a_at) / RFU HAMP (11756126_x_at) / Fold change /veh HAMP (11756126_x_at) / RFU RNFT2 (11725882_a_at) / Fold change /veh RNFT2 (11725882_a_at) / RFU NR4A2 (11747474_a_at) / Fold change /veh NR4A2 (11747474_a_at) / RFU ABCC12 (11746883_a_at) / Fold change /veh ABCC12 (11746883_a_at) / RFU TMEM136 (11760407_x_at) / Fold change /veh TMEM136 (11760407_x_at) / RFU CLDN22 /// WWC2 (11732394_at) / Fold change /veh CLDN22 /// WWC2 (11732394_at) / RFU HLA-DPB1 (11760878_x_at) / Fold change /veh HLA-DPB1 (11760878_x_at) / RFU SPINT1 (11716480_a_at) / Fold change /veh SPINT1 (11716480_a_at) / RFU GAP43 (11754022_s_at) / Fold change /veh GAP43 (11754022_s_at) / RFU A4GNT (11735810_at) / Fold change /veh A4GNT (11735810_at) / RFU PRB3 (11715151_x_at) / Fold change /veh PRB3 (11715151_x_at) / RFU TUBB4B (11761932_at) / Fold change /veh TUBB4B (11761932_at) / RFU CAPN14 (11732068_a_at) / Fold change /veh CAPN14 (11732068_a_at) / RFU TMCC2 (11721928_a_at) / Fold change /veh TMCC2 (11721928_a_at) / RFU IRGQ (11745062_a_at) / Fold change /veh IRGQ (11745062_a_at) / RFU FAM174B (11720279_a_at) / Fold change /veh FAM174B (11720279_a_at) / RFU TMPRSS4 (11748680_a_at) / Fold change /veh TMPRSS4 (11748680_a_at) / RFU FAM212B (11763350_a_at) / Fold change /veh FAM212B (11763350_a_at) / RFU PLEKHG5 (11743358_a_at) / Fold change /veh PLEKHG5 (11743358_a_at) / RFU ZSCAN30 (11745921_a_at) / Fold change /veh ZSCAN30 (11745921_a_at) / RFU CMKLR1 (11741424_a_at) / Fold change /veh CMKLR1 (11741424_a_at) / RFU LOC101060620 /// MAPK8IP1 (11723275_at) / Fold change /veh LOC101060620 /// MAPK8IP1 (11723275_at) / RFU SPTSSB (11747773_x_at) / Fold change /veh SPTSSB (11747773_x_at) / RFU PRSS12 (11739890_at) / Fold change /veh PRSS12 (11739890_at) / RFU BIN1 (11741810_x_at) / Fold change /veh BIN1 (11741810_x_at) / RFU WNT11 (11732464_a_at) / Fold change /veh WNT11 (11732464_a_at) / RFU C10orf10 (11716521_a_at) / Fold change /veh C10orf10 (11716521_a_at) / RFU C5orf56 (11738089_at) / Fold change /veh C5orf56 (11738089_at) / RFU CYB561 (11721691_x_at) / Fold change /veh CYB561 (11721691_x_at) / RFU ANKRD19P (11752326_a_at) / Fold change /veh ANKRD19P (11752326_a_at) / RFU OR2T12 /// OR2T33 /// OR2T8 (11738714_s_at) / Fold change /veh OR2T12 /// OR2T33 /// OR2T8 (11738714_s_at) / RFU VCAN (11748164_a_at) / Fold change /veh VCAN (11748164_a_at) / RFU JSRP1 (11732532_at) / Fold change /veh JSRP1 (11732532_at) / RFU KRTAP10-11 (11738290_x_at) / Fold change /veh KRTAP10-11 (11738290_x_at) / RFU MYO3A (11730013_a_at) / Fold change /veh MYO3A (11730013_a_at) / RFU EBF3 (11725865_a_at) / Fold change /veh EBF3 (11725865_a_at) / RFU CAMK2N1 (11719241_x_at) / Fold change /veh CAMK2N1 (11719241_x_at) / RFU C5orf56 (11738088_a_at) / Fold change /veh C5orf56 (11738088_a_at) / RFU OLFML3 (11715873_a_at) / Fold change /veh OLFML3 (11715873_a_at) / RFU LOC100653217 /// NTM (11731650_a_at) / Fold change /veh LOC100653217 /// NTM (11731650_a_at) / RFU MAPK11 (11762145_a_at) / Fold change /veh MAPK11 (11762145_a_at) / RFU FIZ1 (11724087_x_at) / Fold change /veh FIZ1 (11724087_x_at) / RFU OASL (11726364_x_at) / Fold change /veh OASL (11726364_x_at) / RFU SOX15 (11748057_x_at) / Fold change /veh SOX15 (11748057_x_at) / RFU CD79A (11719716_a_at) / Fold change /veh CD79A (11719716_a_at) / RFU HIST1H1D (11736915_at) / Fold change /veh HIST1H1D (11736915_at) / RFU CASKIN2 (11723855_a_at) / Fold change /veh CASKIN2 (11723855_a_at) / RFU LOC730098 (11760151_x_at) / Fold change /veh LOC730098 (11760151_x_at) / RFU OR4N2 (11742367_at) / Fold change /veh OR4N2 (11742367_at) / RFU PRRT2 (11749266_a_at) / Fold change /veh PRRT2 (11749266_a_at) / RFU SNX32 (11753110_a_at) / Fold change /veh SNX32 (11753110_a_at) / RFU CDHR5 (11726645_a_at) / Fold change /veh CDHR5 (11726645_a_at) / RFU RCAN1 (11760418_a_at) / Fold change /veh RCAN1 (11760418_a_at) / RFU FAM167A (11723789_a_at) / Fold change /veh FAM167A (11723789_a_at) / RFU FAM26E (11764081_at) / Fold change /veh FAM26E (11764081_at) / RFU ISYNA1 (11749810_s_at) / Fold change /veh ISYNA1 (11749810_s_at) / RFU ACY1 (11761880_at) / Fold change /veh ACY1 (11761880_at) / RFU 11764098_at / Fold change /veh 11764098_at / RFU SAMD14 (11745864_x_at) / Fold change /veh SAMD14 (11745864_x_at) / RFU NPB (11741838_a_at) / Fold change /veh NPB (11741838_a_at) / RFU TMPRSS6 (11731388_a_at) / Fold change /veh TMPRSS6 (11731388_a_at) / RFU KRTAP10-2 (11738614_at) / Fold change /veh KRTAP10-2 (11738614_at) / RFU ARHGAP8 /// PRR5-ARHGAP8 (11727945_x_at) / Fold change /veh ARHGAP8 /// PRR5-ARHGAP8 (11727945_x_at) / RFU KRTAP5-7 /// NADSYN1 (11734609_at) / Fold change /veh KRTAP5-7 /// NADSYN1 (11734609_at) / RFU RASL12 (11751679_a_at) / Fold change /veh RASL12 (11751679_a_at) / RFU CDKN2B (11736163_a_at) / Fold change /veh CDKN2B (11736163_a_at) / RFU PRF1 (11729649_at) / Fold change /veh PRF1 (11729649_at) / RFU, ZNF638 /// ZNF638-IT1 / Fold change vs veh, ZNF638 /// ZNF638-IT1 / RFU, PANK3 / Fold change vs veh, PANK3 / RFU, SH3YL1 / Fold change vs veh, SH3YL1 / RFU, ZEB2 / Fold change vs veh, ZEB2 / RFU, NRIP1 / Fold change vs veh, NRIP1 / RFU, PTTG1IP / Fold change vs veh, PTTG1IP / RFU, CAPN2 / Fold change vs veh, CAPN2 / RFU, MED14 / Fold change vs veh, MED14 / RFU, SNORA58 / Fold change vs veh, SNORA58 / RFU, C1orf63 / Fold change vs veh, C1orf63 / RFU, LRRFIP1 / Fold change vs veh, LRRFIP1 / RFU, NDUFAF7 / Fold change vs veh, NDUFAF7 / RFU, SLC12A2 / Fold change vs veh, SLC12A2 / RFU, IBTK / Fold change vs veh, IBTK / RFU, ESF1 / Fold change vs veh, ESF1 / Fold change vs veh, TMEM50B / RFU, TAOK1 / Fold change vs veh, TAOK1 / RFU, ACBD3 / Fold change vs veh, ACBD3 / RFU, TMA16 / Fold change vs veh, TMA16 / RFU, RWDD3 / Fold change vs veh, RWDD3 / RFU, BCAT1 / Fold change vs veh, BCAT1 / RFU, EDEM3 / Fold change vs veh, EDEM3 / RFU, TMEM33 / Fold change vs veh, TMEM33 / RFU, WDR75 / Fold change vs veh, WDR75 / RFU, AHCTF1 / Fold change vs veh, AHCTF1 / RFU, TFRC / Fold change vs veh, TFRC / RFU, ZDHHC17 / Fold change vs veh, ZDHHC17 / RFU, NOM1 / Fold change vs veh, NOM1 / RFU, ARL8B / Fold change vs veh, ARL8B / RFU, ZBTB11 / Fold change vs veh, ZBTB11 / RFU, TAMM41 / Fold change vs veh, TAMM41 / RFU, KIAA1704 /// LOC100996395 / Fold change vs veh, KIAA1704 /// LOC100996395 / RFU, ING1 / Fold change vs veh, ING1 / RFU, TRMT61B / Fold change vs veh, TRMT61B / RFU, FUBP3 / Fold change vs veh, FUBP3 / RFU, TP53 / Fold change vs veh, TP53 / RFU, TNKS2 / Fold change vs veh, TNKS2 / RFU, ZFP14 / Fold change vs veh, ZFP14 / RFU, ACTR2 / Fold change vs veh, ACTR2 / RFU, PPP3R1 / Fold change vs veh, PPP3R1 / RFU, PIK3R1 / Fold change vs veh, PIK3R1 / RFU, HNRNPA1 / Fold change vs veh, HNRNPA1 / RFU, RNF170 / Fold change vs veh, RNF170 / RFU, ZNF28 / Fold change vs veh, ZNF28 / RFU, RNGTT / Fold change vs veh, RNGTT / RFU, OGT / Fold change vs veh, OGT / RFU, BRD1 / Fold change vs veh, BRD1 / RFU, MARS / Fold change vs veh, MARS / RFU, ZNF655 / Fold change vs veh, ZNF655 / RFU, FAHD1 / Fold change vs veh, FAHD1 / RFU, BDP1 / Fold change vs veh, BDP1 / RFU, LRRCC1 / Fold change vs veh, LRRCC1 / RFU, ARID1A / Fold change vs veh, ARID1A / RFU, ZNF146 / Fold change vs veh, ZNF146 / RFU, ZNF330 / Fold change vs veh, ZNF330 / RFU, GPN3 / Fold change vs veh, GPN3 / RFU, C9orf123 / Fold change vs veh, C9orf123 / RFU, N4BP2L2 / Fold change vs veh, N4BP2L2 / RFU, ARFIP1 / Fold change vs veh, ARFIP1 / RFU, FAM179B / Fold change vs veh, FAM179B / RFU, BCL10 / Fold change vs veh, BCL10 / RFU, UHRF1BP1L / Fold change vs veh, UHRF1BP1L / RFU, BET1 / Fold change vs veh, BET1 / RFU, CNOT2 / Fold change vs veh, CNOT2 / RFU, ZNF268 / Fold change vs veh, ZNF268 / Fold change vs veh, ZNF507 / RFU, DGCR2 / Fold change vs veh, DGCR2 / RFU, WDSUB1 / Fold change vs veh, WDSUB1 / Fold change vs veh, HSP90B1 /// MIR3652 / RFU, ADSS / Fold change vs veh, ADSS / RFU, GK / Fold change vs veh, GK / RFU, ZNF148 / Fold change vs veh, ZNF148 / RFU, TAF9 / Fold change vs veh, TAF9 / RFU, SLC1A5 / Fold change vs veh, SLC1A5 / RFU, SLMO2 / Fold change vs veh, SLMO2 / RFU, ABCC4 / Fold change vs veh, ABCC4 / RFU, LOC101060439 /// RAP1B / Fold change vs veh, LOC101060439 /// RAP1B / RFU, RFX7 / Fold change vs veh, RFX7 / RFU, GTPBP10 / Fold change vs veh, GTPBP10 / RFU, CNEP1R1 / Fold change vs veh, CNEP1R1 / RFU, BIVM-ERCC5 /// ERCC5 / Fold change vs veh, BIVM-ERCC5 /// ERCC5 / RFU, ILF3 / Fold change vs veh, ILF3 / RFU 11762660_at / Fold change /veh 11762660_at / RFU VCAN (11757783_s_at) / Fold change /veh VCAN (11757783_s_at) / RFU DDX43 (11728927_at) / Fold change /veh DDX43 (11728927_at) / RFU KRT8 (11758188_x_at) / Fold change /veh KRT8 (11758188_x_at) / RFU NKD1 (11759106_at) / Fold change /veh NKD1 (11759106_at) / RFU SRD5A1 (11742802_a_at) / Fold change /veh SRD5A1 (11742802_a_at) / RFU TPSAB1 /// TPSB2 (11721975_s_at) / Fold change /veh TPSAB1 /// TPSB2 (11721975_s_at) / RFU GSTM3 (11746129_a_at) / Fold change /veh GSTM3 (11746129_a_at) / RFU IL23R (11737362_x_at) / Fold change /veh IL23R (11737362_x_at) / RFU TMEM51 (11727254_a_at) / Fold change /veh TMEM51 (11727254_a_at) / RFU PIWIL2 (11732686_x_at) / Fold change /veh PIWIL2 (11732686_x_at) / RFU ORM1 (11744905_x_at) / Fold change /veh ORM1 (11744905_x_at) / RFU CCDC152 (11743942_at) / Fold change /veh CCDC152 (11743942_at) / RFU ECM1 (11717891_a_at) / Fold change /veh ECM1 (11717891_a_at) / RFU IL23R (11748794_a_at) / Fold change /veh IL23R (11748794_a_at) / RFU TNFAIP8L3 (11732012_x_at) / Fold change /veh TNFAIP8L3 (11732012_x_at) / RFU MBOAT4 (11741988_at) / Fold change /veh MBOAT4 (11741988_at) / RFU 11764193_at / Fold change /veh 11764193_at / RFU TMEM53 (11763286_at) / Fold change /veh TMEM53 (11763286_at) / RFU MAGEB2 (11727129_at) / Fold change /veh MAGEB2 (11727129_at) / RFU TMEM200A (11744735_a_at) / Fold change /veh TMEM200A (11744735_a_at) / RFU CCDC152 (11751479_a_at) / Fold change /veh CCDC152 (11751479_a_at) / RFU FAM211A (11726209_a_at) / Fold change /veh FAM211A (11726209_a_at) / RFU RGS16 (11746705_a_at) / Fold change /veh RGS16 (11746705_a_at) / RFU VCAN (11755009_s_at) / Fold change /veh VCAN (11755009_s_at) / RFU RHOB (11743442_s_at) / Fold change /veh RHOB (11743442_s_at) / RFU RGS16 (11720943_a_at) / Fold change /veh RGS16 (11720943_a_at) / RFU RGS16 (11720944_at) / Fold change /veh RGS16 (11720944_at) / RFU, VPS4B / Fold change vs veh, VPS4B / RFU, CREB1 / Fold change vs veh, CREB1 / RFU, DNAJC13 / Fold change vs veh, DNAJC13 / RFU, GNAQ / Fold change vs veh, GNAQ / RFU, CDK5R1 / Fold change vs veh, CDK5R1 / RFU, ZRANB3 / Fold change vs veh, ZRANB3 / RFU, CUL4A / Fold change vs veh, CUL4A / RFU, CCNY / Fold change vs veh, CCNY / RFU, UFL1 / Fold change vs veh, UFL1 / RFU, COG3 / Fold change vs veh, COG3 / RFU, DIAPH2 / Fold change vs veh, DIAPH2 / RFU, SKA2 / Fold change vs veh, SKA2 / RFU, AFF3 / Fold change vs veh, AFF3 / RFU, LMF1 / Fold change vs veh, LMF1 / RFU, IPO11 / Fold change vs veh, IPO11 / RFU, DFFB / Fold change vs veh, DFFB / RFU, FOXP1 / Fold change vs veh, FOXP1 / RFU, CARD8 / Fold change vs veh, CARD8 / RFU, STRN3 / Fold change vs veh, STRN3 / RFU, ADK / Fold change vs veh, ADK / RFU, RASSF2 / Fold change vs veh, RASSF2 / RFU, WIPF1 / Fold change vs veh, WIPF1 / RFU, LARP1B / Fold change vs veh, LARP1B / RFU, RASA1 / Fold change vs veh, RASA1 / RFU, RB1 / Fold change vs veh, RB1 / RFU, PPFIA1 / Fold change vs veh, PPFIA1 / RFU, MAT2A / Fold change vs veh, MAT2A / RFU, CCT5 / Fold change vs veh, CCT5 / RFU, WDR92 / Fold change vs veh, WDR92 / RFU, CUX1 / Fold change vs veh, CUX1 / RFU, TTC7A / Fold change vs veh, TTC7A / RFU, TMEM135 / Fold change vs veh, TMEM135 / RFU, DEPTOR / Fold change vs veh, DEPTOR / RFU, CPM / Fold change vs veh, CPM / RFU, DNAJB6 / Fold change vs veh, DNAJB6 / RFU, CACNA2D3 / Fold change vs veh, CACNA2D3 / RFU, DTX4 / Fold change vs veh, DTX4 / RFU, TFCP2 / Fold change vs veh, TFCP2 / RFU, GMCL1 /// GMCL1P1 / Fold change vs veh, GMCL1 /// GMCL1P1 / RFU, AEBP2 / Fold change vs veh, AEBP2 / RFU, SNHG1 /// SNORD22 /// SNORD25 /// SNORD26 /// SNORD27 /// SNORD28 /// SNORD29 /// SNORD31 / Fold change vs veh, SNHG1 /// SNORD22 /// SNORD25 /// SNORD26 /// SNORD27 /// SNORD28 /// SNORD29 /// SNORD31 / Fold change (Aza/veh), C12orf56 (ProbeSet 11735607_a_at) / Fold change (ACY-1035/veh), C12orf56 (ProbeSet 11735607_a_at) / Fold change (Aza/veh), FGFR1OP (ProbeSet 11751329_s_at) / Fold change (ACY-1035/veh), FGFR1OP (ProbeSet 11751329_s_at) / Fold change (Aza/veh), VPS36 (ProbeSet 11739960_a_at) / Fold change (ACY-1035/veh), VPS36 (ProbeSet 11739960_a_at) / RFU SYPL1 (11715823_x_at) / Fold change /veh SYPL1 (11715823_x_at) / RFU IGFBP7 (11715501_s_at) / Fold change /veh IGFBP7 (11715501_s_at) / RFU REEP3 (11722064_at) / Fold change /veh REEP3 (11722064_at) / RFU IGLL1 (11728026_x_at) / Fold change /veh IGLL1 (11728026_x_at): dose or concentration left out as unconfirmed. The note with it: ProbeSet 11740781_a_at; LIST B.

For the molecule `Nc1ccc(-c2cccs2)cc1NC(=O)c1ccc2c(c1)cc(C1CC1)n2CCN1CCOCC1` [ACY-1035], the “Fold change vs veh, ILF3” value is 0.88.
